Assay results reported in US6077869A, “Aryl phenylhydrazides as selective COX-2 inhibitors for treatment of inflammation” (Ortho-McNeil Pharmaceutical, Inc., priority 1999, dated 2000).
pIC50: −log10 of the molar value.

Tests used:
[1] = target: cyclooxygenase 2 (COX-2); assay: Procedure I: ability of the compounds to inhibit cyclooxygenase 2 (6217/6218); assay type: biochemical, Sheep; details: Wh Cell
[2] = target: cyclooxygenase 1 (COX-1); assay: Procedure II: cyclooxygenase 1 activity (6226); assay type: biochemical, Rat; details: RBL-1 cell homogenate supernatant
Procedure: [Worded in the source for another target; this target is reported under the same test.] Rat basophilic leukemia cells (RBL-1; 5×10^7 viable cells/mL) were disrupted by homogenization on ice (four 20 sec bursts) with a Brinkman polytron. […] The pellet was discarded and the supernatant was saved as the source of enzymes. The supernatant was pre-incubated for five minutes at 37° C. in the presence of 2 mM of CaCl2 and compound or vehicle (1% DMSO). The conversion of AA into products by CO and LO was initiated by adding 10 μL (50 μCi) of 1-^14 C-AA to each tube and incubated at 37° C. for 20 minutes. The reaction was stopped by adjusting the pH of each sample to 3 to 3.5 with 2 M formic acid. Samples were extracted with three volumes of chloroform to isolate the products of 5-LO formed during the reaction. Fractions were dried under nitrogen, then resuspended in 40 μL of chloroform and spotted onto silica gel HL plates.
The plates were developed in A-9 solvent. The dried plates were analyzed using a Bioscan Imaging TLC scanner to determine the percentage of radiolabelled AA converted to 5-HETE (LO product) in each sample. The percentage of inhibition was calculated by:
[1-(5-HETE test)]/5-HETE control×100=% inhibition The IC50 was determined using a curve fit in Cricket Graph (Computer Associated), which provided the equation of the regressed line used in the calculation.

## O=C(NNc1ccc(Cl)cc1)c1ccc(Cl)cc1 [Example 1]
[1]
  pIC50: 6.47
[2]
  pIC50: < 5.00

## O=C(NNc1ccccc1)c1ccccc1 [Example 2]
[1]
  pIC50: 5.00
[2]
  pIC50: < 5.00

## O=C(NNc1ccccc1)c1ccc(Cl)cc1 [Example 3]
[1]
  pIC50: 6.48
[2]
  pIC50: < 5.00

## Cc1ccc(NNC(=O)c2ccccc2)cc1 [Example 4]
[1]
  pIC50: 6.48
[2]
  pIC50: < 5.00

## O=C(NNc1ccc(Cl)cc1)c1ccccc1 [Example 5]
[1]
  pIC50: 6.28
[2]
  pIC50: < 5.00

## CS(=O)(=O)c1ccc(NNC(=O)c2ccccc2)cc1 [Example 6]
[1]
  pIC50: < 5.00
[2]
  pIC50: < 5.00

## Cc1ccc(NNC(=O)c2ccc(Cl)cc2)cc1 [Example 7]
[1]
  pIC50: 8.00
[2]
  pIC50: < 5.00

## CS(=O)(=O)c1ccc(NNC(=O)c2ccc(Cl)cc2)cc1 [Example 8]
[1]
  pIC50: < 5.00
[2]
  pIC50: < 5.00

## COc1ccc(C(=O)NNc2ccc(Cl)cc2)cc1 [Example 9]
[1]
  pIC50: 6.33
[2]
  pIC50: < 5.00

## COc1ccc(NNC(=O)c2ccc(Cl)cc2)cc1 [Example 10]
[1]
  pIC50: 6.89

## COc1ccc(C(=O)NNc2ccccc2)cc1 [Example 11]
[1]
  pIC50: < 5.00
[2]
  pIC50: < 5.00

## COc1ccc(NNC(=O)c2ccccc2)cc1 [Example 12]
[1]
  pIC50: 6.74
[2]
  pIC50: < 5.00
